We go through 17 compounds from patent US20240083892A1 (BISICHEM CO., LTD., priority 2021, published 2024).

Test [1] concerns the target T1, RIPK1 (Homo sapiens, UniProt Q13546).
T1 construct: endogenous in cells; host or cells: HT-29 (KCLB 30038)
T1 sequence (Q13546 1-671): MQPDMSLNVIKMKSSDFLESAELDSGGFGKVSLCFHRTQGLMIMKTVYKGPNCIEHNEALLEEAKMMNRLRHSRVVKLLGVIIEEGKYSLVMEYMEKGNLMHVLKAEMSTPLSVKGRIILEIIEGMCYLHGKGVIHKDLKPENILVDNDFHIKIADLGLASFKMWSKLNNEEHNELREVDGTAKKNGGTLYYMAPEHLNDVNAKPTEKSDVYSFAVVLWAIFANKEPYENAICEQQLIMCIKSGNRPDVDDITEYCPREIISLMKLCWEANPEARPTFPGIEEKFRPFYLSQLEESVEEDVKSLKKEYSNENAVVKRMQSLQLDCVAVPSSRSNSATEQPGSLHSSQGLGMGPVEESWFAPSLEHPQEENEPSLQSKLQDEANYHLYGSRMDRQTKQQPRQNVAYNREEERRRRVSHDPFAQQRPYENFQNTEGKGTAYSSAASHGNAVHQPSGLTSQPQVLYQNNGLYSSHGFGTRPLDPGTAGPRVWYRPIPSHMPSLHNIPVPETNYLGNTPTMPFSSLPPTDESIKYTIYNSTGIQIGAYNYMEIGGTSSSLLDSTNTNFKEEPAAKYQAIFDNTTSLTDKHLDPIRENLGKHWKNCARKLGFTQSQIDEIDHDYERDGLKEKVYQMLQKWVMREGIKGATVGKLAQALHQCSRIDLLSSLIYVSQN
Put plainly: Immunoblotting of TNFα induced phospho-RIPK1 (ser 166) levels. It is filed as cell-based. The settings on record: HMC3 cells; Z-VAD-FMK, human TNFα 20 ng/ml, SM-164 100 nM; 7 h, serum free media; read-out: Cell-base RIPK1 activity: phspho-RIPK1 (Ser166). On the procedure: (§1) Human colon carcinoma cell HT-29 (KCLB 30038), BV2 mouse microglial cell (cell was a kind gift from Dr. Nak-Yun Sung, Senior researcher at Korea Prime Pharmacy CO., LTD.) and human microglial cell HMC3 (ATCC® CRL-3304™). HT-29 cell was grown in Roswell Park Memorial Institute (RPMI) 1640, BV2 cell was grown in Dulbecco's Modified Eagle's Medium (DMEM) and HMC3 cell was grown in Minimum Essential Media Eagle (MEM) supplemented with 10% fetal bovine serum and 1% mixture of penicillin and streptomycin (Gibco). Cells were maintained at 37° C. in a humidified 5% CO2 atmosphere.
Biological activity of the compounds of RIPK1 inhibitor was determined by measuring their ability to inhibitor TNFα induced phospho-RIPK1 (ser 166) levels, phospho-RIPK3 levels, phospho-MLKL levels in HMC3 cells. Cells were pretreated with Z-VAD-FMK […]. After 30 min, human TNFα 20 ng/ml, SM-164 100 nM and RIPK1 inhibitor (0.1, 1, 10 nM) were treated for 7 h under serum free media. Cells were lysed with cold lysis buffer containing 25 mM HEPES pH 7.6, […] NaCl, 1% NP40, 1% sodium deoxycholate, 0.1% SDS, and protease inhibitor mixture (Bimake, Houston, USA) using sonicators. The cells were centrifuged at 15,000 rpm, 4° C. for 5 min. After protein concentration of the lysates (supernatants) was quantified using BCA assay (Thermo Fisher Scientific, Waltham, USA), lysates were mixed with LDS sample buffer and heating at […] for 10 min. (Invitrogen, California, USA). […] The membranes are placed in an image analyzer (Imagequant, LAS 500, GE Healthcare), connected to a computer which allows the image generation (software Image reader LAS 500).

In test [2] the target is T1, RIPK1. Put plainly: Cell-based necroptosis assay for RIPK1 activity (cell viability by CCK-8). The settings on record: HT-29 cells; Z-VAD-FMK 20 μM, human TNFα 10 ng/ml, SM-164 100 nM; 24 h; read-out: Cell-base RIPK1 activity: Necroptosis. On the procedure:
as §1
To measure the activity of RIPK1 inhibitor in necroptotic cells, HT-29 cells were treated by control DMSO, human TNFα (Peprotech, Rocky Hill, USA), SM-164 (Biovision, California, USA) and a pan-caspase inhibitor Z-VAD-FMK (Invivogen, San Diego, USA). Cells were pretreated with Z-VAD-FMK 20 μM. After 30 min, human TNFα 10 ng/ml, SM-164 100 nM and RIPK1 Inhibitor (0.0001, 0.001, 0.01, 0.02, 0.05, 0.1, 1, 10 uM) were treated for 24 h. Cell viability was measured by Cell Counting Kit 8 (CCK-8) (Dong-in, Seoul, Korea).

Take `CC(C)CCCOc1ccc2c(c1)N(C)C(=O)[C@@H](NC(=O)n1cc(Cc3cccc(F)c3)cn1)CO2` [Example 15, (S)-4-(3-fluorobenzyl)-N-(5-methyl-7-((4-methylpentyl)oxy)-4-oxo-2,3,4,5-tetrahydrobenzo[b][1,4]oxazepin-3-yl)-1H-pyrazole-1-carboxamide]: the IC50 at RIPK1 [1] and at RIPK1 [2] was < 10 nM each time.
In the case of `CN1C(=O)[C@@H](NC(=O)n2cc(Cc3cccc(F)c3)cn2)COc2ccc(OCCCC3CCCCC3)cc21` [Example 16, (S)—N-(7-(3-cyclohexylpropoxy)-5-methyl-4-oxo-2,3,4,5-tetrahydrobenzo[b][1,4]oxazepin-3-yl)-4-(3-fluorobenzyl)-1H-pyrazole-1-carboxamide], the IC50 at RIPK1 [1] and on RIPK1 [2] was < 10 nM in each case.
Consider `CN1C(=O)[C@@H](NC(=O)n2cc(Cc3cccc(F)c3)cn2)COc2ccc(OCCN3CCC(C)(O)CC3)cc21` [Example 18, (S)-4-(3-fluorobenzyl)-N-(7-(2-(4-hydroxy-4-methylpiperidin-1-yl)ethoxy)-5-methyl-4-oxo-2,3,4,5-tetrahydrobenzo[b][1,4]oxazepin-3-yl)-1H-pyrazole-1-carboxamide], for which the IC50 on RIPK1 [1] and on RIPK1 [2] was < 10 nM each time.
In the case of `CN1C(=O)[C@@H](NC(=O)n2cc(Cc3cccc(F)c3)cn2)COc2ccc(OCCOCCO)cc21` [Example 19, (S)-4-(3-fluorobenzyl)-N-(7-(2-(2-hydroxyethoxy)ethoxy)-5-methyl-4-oxo-2,3,4,5-tetrahydrobenzo[b][1,4]oxazepin-3-yl)-1H-pyrazole-1-carboxamide], the IC50 at RIPK1 [1] and at RIPK1 [2] was < 10 nM in each case.
Turning to `CN1C(=O)[C@@H](NC(=O)n2cc(Cc3cccc(F)c3)cn2)COc2ccc(OCC(C)(C)O)cc21` [Example 20, (S)-4-(3-fluorobenzyl)-N-(7-(2-hydroxy-2-methylpropoxy)-5-methyl-4-oxo-2,3,4,5-tetrahydrobenzo[b][1,4]oxazepin-3-yl)-1H-pyrazole-1-carboxamide], the IC50 on RIPK1 [1] and on RIPK1 [2] was < 10 nM each time.
As for `CN1C(=O)[C@@H](NC(=O)n2cc(Cc3cccc(F)c3)cn2)COc2ccc(OCCC(C)(C)O)cc21` [Example 21, (S)-4-(3-fluorobenzyl)-N-(7-(3-hydroxy-3-methylbutoxy)-5-methyl-4-oxo-2,3,4,5-tetrahydrobenzo[b][1,4]oxazepin-3-yl)-1H-pyrazole-1-carboxamide], the IC50 at RIPK1 [1] and at RIPK1 [2] was < 10 nM in each case.
As to `CN1C(=O)[C@@H](NC(=O)n2cc(Cc3cccc(F)c3)cn2)COc2ccc(OCC#CC(C)(C)O)cc21` [Example 22, (S)-4-(3-fluorobenzyl)-N-(7-((4-hydroxy-4-methylpent-2-yn-1-yl)oxy)-5-methyl-4-oxo-2,3,4,5-tetrahydrobenzo[b][1,4]oxazepin-3-yl)-1H-pyrazole-1-carboxamide], the IC50 on RIPK1 [1] and at RIPK1 [2] was < 10 nM each time.
Regarding `CN1C(=O)[C@@H](NC(=O)n2cc(Cc3cccc(F)c3)cn2)COc2ccc(OCC#CC3(O)CCCCC3)cc21` [Example 23, (S)-4-(3-fluorobenzyl)-N-(7-((3-(1-hydroxycyclohexyl)prop-2-yn-1-yl)oxy)-5-methyl-4-oxo-2,3,4,5-tetrahydrobenzo[b][1,4]oxazepin-3-yl)-1H-pyrazole-1-carboxamide], the IC50 on RIPK1 [1] and on RIPK1 [2] was < 10 nM throughout.
With `CN1C(=O)[C@@H](NC(=O)n2cc(Cc3cccc(F)c3)cn2)COc2ccc(OCC#CC3(O)CCC3)cc21` [Example 24, (S)-4-(3-fluorobenzyl)-N-(7-((3-(1-hydroxycyclobutyl)prop-2-yn-1-yl)oxy)-5-methyl-4-oxo-2,3,4,5-tetrahydrobenzo[b][1,4]oxazepin-3-yl)-1H-pyrazole-1-carboxamide], the IC50 on RIPK1 [1] and at RIPK1 [2] was < 10 nM each time.
Turning to `CN1C(=O)[C@@H](NC(=O)n2cc(Cc3cccc(F)c3)cn2)COc2ccc(OCC#Cc3cccnc3)cc21` [Example 25, (S)-4-(3-fluorobenzyl)-N-(5-methyl-4-oxo-7-((3-(pyridin-3-yl)prop-2-yn-1-yl)oxy)-2,3,4,5-tetrahydrobenzo[b][1,4]oxazepin-3-yl)-1H-pyrazole-1-carboxamide], the IC50 at RIPK1 [1] and on RIPK1 [2] was < 10 nM each time.
In the case of `CN1C(=O)[C@@H](NC(=O)n2cc(Cc3cccc(F)c3)cn2)COc2ccc(OCCCC(C)(C)O)cc21` [Example 26, (S)-4-(3-fluorobenzyl)-N-(7-((4-hydroxy-4-methylpentyl)oxy)-5-methyl-4-oxo-2,3,4,5-tetrahydrobenzo[b][1,4]oxazepin-3-yl)-1H-pyrazole-1-carboxamide], the IC50 at RIPK1 [1] and at RIPK1 [2] was < 10 nM each time.
Turning to `CN1C(=O)[C@@H](NC(=O)n2cc(Cc3cccc(F)c3)cn2)COc2ccc(OCCCC3(O)CCCCC3)cc21` [Example 27, (S)-4-(3-fluorobenzyl)-N-(7-(3-(1-hydroxycyclohexyl)propoxy)-5-methyl-4-oxo-2,3,4,5-tetrahydrobenzo[b][1,4]oxazepin-3-yl)-1H-pyrazole-1-carboxamide], the IC50 at RIPK1 [1] and at RIPK1 [2] was < 10 nM each time.
For the compound `CN1C(=O)[C@@H](NC(=O)n2cc(Cc3cccc(F)c3)cn2)COc2ccc(OCCCC3(O)CCC3)cc21` [Example 28, (S)-4-(3-fluorobenzyl)-N-(7-(3-(1-hydroxycyclobutyl)propoxy)-5-methyl-4-oxo-2,3,4,5-tetrahydrobenzo[b][1,4]oxazepin-3-yl)-1H-pyrazole-1-carboxamide], the IC50 on RIPK1 [1] and on RIPK1 [2] was < 10 nM each time.
As to `CN1C(=O)[C@@H](NC(=O)n2cc(Cc3cccc(F)c3)cn2)COc2ccc(OCCCc3cccnc3)cc21` [Example 29, (S)-4-(3-fluorobenzyl)-N-(5-methyl-4-oxo-7-(3-(pyridin-3-yl)propoxy)-2,3,4,5-tetrahydrobenzo[b][1,4]oxazepin-3-yl)-1H-pyrazole-1-carboxamide], the IC50 at RIPK1 [1] and on RIPK1 [2] was < 10 nM each time.
As for `CN1C(=O)[C@@H](NC(=O)n2cc(Cc3cccc(F)c3)cn2)COc2ccc(OC3CCCCC3)cc21` [Example 30, (S)—N-(7-(cyclohexyloxy)-5-methyl-4-oxo-2,3,4,5-tetrahydrobenzo[b][1,4]oxazepin-3-yl)-4-(3-fluorobenzyl)-1H-pyrazole-1-carboxamide], the IC50 at RIPK1 [1] and at RIPK1 [2] was < 10 nM throughout.
As to `CN1C(=O)[C@@H](NC(=O)n2cc(Cc3cccc(F)c3)cn2)COc2ccc(OC3CCC(C)(C)CC3)cc21` [Example 31, (S)—N-(7-((4,4-dimethylcyclohexyl)oxy)-5-methyl-4-oxo-2,3,4,5-tetrahydrobenzo[b][1,4]oxazepin-3-yl)-4-(3-fluorobenzyl)-1H-pyrazole-1-carboxamide], the IC50 on RIPK1 [1] and at RIPK1 [2] was < 10 nM each time.
`CN1C(=O)[C@@H](NC(=O)n2cc(Cc3cccc(F)c3)cn2)COc2ccc(O[C@H]3CC[C@@H](O)CC3)cc21` [Example 34, 4-(3-fluorobenzyl)-N—((S)-7-(((1s,4R)-4-hydroxycyclohexyl)oxy)-5-methyl-4-oxo-2,3,4,5-tetrahydrobenzo[b][1,4]oxazepin-3-yl)-1H-pyrazole-1-carboxamide]: the IC50 on RIPK1 [1] and on RIPK1 [2] was < 10 nM each time.
